Laboratory results as given in paper PMC4784888, “Activity Based High-Throughput Screening for Novel O-GlcNAc Transferase Substrates Using a Dynamic Peptide Microarray” (PLoS ONE, 2016).
Counter-ions that a name gives are not always drawn.

Test system: purified m-OGT
Test: Km of UDP-GlcNAc in RBL-2 peptide O-GlcNAcylation on microarray
Assay type: biochemical, human
Conditions: fixed saturating RBL-2_410–422 peptide, purified m-OGT (0.2 μg/μL), UDP-GlcNAc 0–2 mM, Michaelis-Menten fit; read-out: Km of UDP-GlcNAc donor
Experimental: One step OGT purification was performed using His60 Ni Gravity Flow Columns (Clontech) according to the manufacturer’s instructions. Briefly, the nickel column was equilibrated with a buffer containing 50 mM sodium phosphate, 300 sodium chloride, 20 mM imidazole, and pH 7.4, followed by incubation with cell lysate containing His tag OGT for 1h at 4°C. After washing several times using buffer containing 50 mM sodium phosphate, 300 sodium chloride, 40 mM imidazole, and pH 7.4, the recombinant OGT was eluted using elution buffer containing 50 mM sodium phosphate, 300 mM sodium chloride, 300 mM imidazole, and pH 7.4. […]
Peptide O-GlcNAcylation was assessed using PamChip 4 microarray chips with a PamStation 12 instrument (Pamgene international, The Netherlands). […] O-GlcNAcylation of each peptide was detected by a fluorescent signal which was produced by an FITC conjugated antibody bound to the O-GlcNAc moiety on the peptide.
Image analysis was performed using BioNavigator 6 software (Pamgene international, The Netherlands). Briefly, each image was quantified by automated array grid finding and subsequent quantification of signal and local background for each individual spot. In this work, the signal median-minus-background value was used as the quantitative parameter for the O-GlcNAcylation of the peptide. […]

- Km: 24 µM
SMILES: CC(=O)N[C@H]1[C@@H](OP(=O)(O)OP(=O)(O)OC[C@H]2O[C@@H](n3ccc(=O)[nH]c3=O)[C@H](O)[C@@H]2O)O[C@H](CO)[C@@H](O)[C@@H]1O [UDP-GlcNAc, Uridine 5′-diphospho-N-acetylglucosamine sodium salt]
